In experiment [1] the test system is C. neoformans growth with sorbitol, alamar blue, 24 h. Put plainly: antifungal growth inhibition under osmotic support – sorbitol, alamar blue, dry powder, set 3, mechanism study for C. neoformans lysis project, dose response (AID 743304). Background: The colour change of resazurin is a common sign of viable cells or microbes.
Test in experiment [2]: as above
The note with it: C. neoformans growth with sorbitol, alamar blue, 24 h; at 35 µM (top of the series).

Where “and” joins values, the source holds several entries; their conditions need not be identical. Identical values can stand only once. Calls of active or inactive are those of the source.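 The calls were made as follows: active = signal drop whose fitted half-maximal dose is no more than twice the top valid dose; inconclusive = flat curve with 30 to 70% inhibition, or unreliable fit; inactive = the rest, including rising signal.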

In the case of `Cc1cccc(OCCn2c(=S)[nH]c3c(F)cccc32)c1`, in experiment [1], the AC50 – broadly, the concentration at which the activity in the assay is half-maximal – was 16.4 µM and 16.6 µM. Still for that read-out and setting: for `Fc1cccc(OCCn2c(=S)[nH]c3ccccc32)c1` the value was 20.5 µM; for `Cc1ccc(OCCn2c(=S)[nH]c3ccccc32)c(C(C)C)c1`, 10.2 µM and 6.37 µM. For `CC(C)(C)c1ccccc1OCCn1c(=S)[nH]c2ccccc21`, in experiment [1], the AC50 was 8.32 µM.

Consider `Cc1ccc(C(C)C)c(OCCn2c(=S)[nH]c3cccc(F)c32)c1`, for which the AC50 in experiment [1] is 10.9 µM. In the case of `Cc1ccc(C(C)C)c(OCCn2c(=S)[nH]c3c(Cl)cccc32)c1`, the activity change, negative = inhibition in experiment [2] is -14.9% (inactive). On to `CC(C)c1ccccc1NCCn1c(=S)[nH]c2ccccc21`, for which the activity change, negative = inhibition in experiment [2] was 1.72% (inactive).

As for `CC(C)c1ccc(OCCn2c(=S)[nH]c3ccccc32)cc1`, in experiment [1], the AC50 was 4.21 µM. For `Cc1ccc(OCCn2c(C)nc3ccccc32)cc1`, the AC50 in experiment [1] is 6.48 µM.

Regarding `Cc1ccc(OCCn2cnc3ccccc32)cc1`, the concentration at half-maximal activity (AC50) in experiment [1] is 5.96 µM. In the case of `c1ccc(OCCn2cnc3ccccc32)cc1`, in experiment [2], the activity change, negative = inhibition was 39.4% (inactive). Turning to `Fc1cccc2c1[nH]c(=S)n2CCOc1ccccc1`, the AC50 in experiment [1] was 21.4 µM and 22.2 µM and 23.1 µM.

As for `Cc1ccccc1OCCn1c(=S)[nH]c2ccccc21`, the half-maximal activity concentration (AC50) in experiment [1] was 31.2 µM.

Take `Fc1ccc(OCCn2c(=S)[nH]c3ccccc32)cc1`: the AC50 in experiment [1] was 27.3 µM. For `Cc1ccc(C)c(OCCn2c(=S)[nH]c3ccccc32)c1`, the activity change, negative = inhibition in experiment [2] is -7.02% (inactive).

Turning to `Cc1cccc(OCCn2c(=S)[nH]c3ccccc32)c1C`, the half-maximal activity concentration (AC50) in experiment [1] is 6.75 µM. `COc1ccc(OCCn2c(=S)[nH]c3ccccc32)cc1`: in experiment [1], the AC50 is 26.2 µM. Take `CC(C)(C)c1ccc(OCCn2c(=S)[nH]c3ccccc32)cc1`: the AC50 in experiment [1] was 4.94 µM. With `Cc1cccc(OCCn2c(=S)[nH]c3ccccc32)c1`, the concentration at half-maximal activity (AC50) in experiment [1] was 22.4 µM. The same measure, in the same setting: the figure for `S=c1[nH]c2ccccc2n1CCOc1ccccc1Cl` is 24 µM.

In the case of `Cc1ccc(C(C)C)c(OCCn2c(=S)[nH]c3cccc(C)c32)c1`, the half-maximal activity concentration (AC50) in experiment [1] was 16.4 µM.

Turning to `Cc1ccc(C(C)C)c(OCCn2c(=S)[nH]c3ccc(Cl)cc32)c1`, in experiment [2], the activity change, negative = inhibition was 36.9% (inactive). `Cc1ccc(OCCn2c(=S)[nH]c3ccccc32)cc1`: the AC50 in experiment [1] was 6.11 µM.

Take `Cc1cccc2[nH]c(=S)n(CCOc3ccccc3)c12`: the AC50 in experiment [1] is 14.2 µM. Regarding `CC(C)(C)c1ccc(OCCn2cnc3ccccc32)cc1`, the AC50 in experiment [1] was 8.05 µM. On to `Cc1ccc(OCCn2c(SCCO)nc3ccccc32)c(C(C)C)c1`, for which the concentration at half-maximal activity (AC50) in experiment [1] is 8.48 µM.

Consider `Fc1ccc2c(c1)[nH]c(=S)n2CCOc1ccccc1`, for which the AC50 in experiment [1] was 25 µM and 23.1 µM. With `Cc1ccc2c(c1)[nH]c(=S)n2CCOc1ccccc1`, in experiment [1], the concentration at half-maximal activity (AC50) was 11.6 µM and 12.9 µM.

As for `S=c1[nH]c2cccc(Cl)c2n1CCOc1ccccc1`, the half-maximal activity concentration (AC50) in experiment [1] is 5.74 µM and 5.16 µM. Still for that read-out and setting: the figure for `Cc1cccc(OCCn2c(=S)[nH]c3cc(F)ccc32)c1` is 11.2 µM and 10.4 µM. Consider `Cc1cccc(OCCn2c(=S)[nH]c3cc(C(F)(F)F)ccc32)c1`, for which the activity change, negative = inhibition in experiment [2] was 8.97% (inactive). For the compound `CCOc1ccc(OCCn2c(=S)[nH]c3ccccc32)cc1`, in experiment [1], the AC50 is 11.1 µM. With `S=c1[nH]c2cc(Cl)ccc2n1CCOc1ccccc1`, the activity change, negative = inhibition in experiment [2] was 17.6% (inactive).

For the compound `S=c1[nH]c2ccccc2n1CCOc1ccc(Cl)cc1`, the AC50 in experiment [1] was 6.3 µM. Same read-out and setting: the figure for `O=c1[nH]c2ccccc2n1CCOc1ccccc1` is 24.1 µM. For `Cc1ccc(OCCn2cnc3ccccc32)c(C(C)C)c1`, the concentration at half-maximal activity (AC50) in experiment [1] is 24 µM. Turning to `COc1ccccc1OCCn1c(=S)[nH]c2ccccc21`, in experiment [2], the activity change, negative = inhibition is 36.1% (inactive). Turning to `Cc1ccc(C(C)C)c(OCCn2c(=S)[nH]c3ccccc32)c1`, the AC50 in experiment [1] is 6.96 µM and 7.67 µM. As to `Cc1ccc(C(C)C)c(OCCn2c(=S)[nH]c3c(F)cccc32)c1`, in experiment [2], the activity change, negative = inhibition is 48.2% (inactive).

Consider `Cc1ccc(C(C)C)c(OCCn2c(CO)nc3ccccc32)c1`, for which the AC50 in experiment [1] is 33.6 µM. Take `COc1cccc(OCCn2c(=S)[nH]c3ccccc32)c1`: the half-maximal activity concentration (AC50) in experiment [1] is 26.1 µM.

Take `CC(C)c1ccccc1OCCn1c(=S)[nH]c2ccccc21`: in experiment [1], the AC50 was 18.4 µM. Take `Cc1ccc(C(C)C)c(OCCn2c(=S)[nH]c3ccc(F)cc32)c1`: the activity change, negative = inhibition in experiment [2] is 14.7% (inactive). On to `Fc1ccccc1OCCn1c(=S)[nH]c2ccccc21`, for which the AC50 in experiment [1] was 21.9 µM.

For `Cc1ccc(C(C)C)c(OCCn2c(=S)[nH]c3cccc(Cl)c32)c1`, in experiment [1], the AC50 is 7.25 µM. For `Cc1ccc(C(C)C)c(OCCn2c(=S)[nH]c3c(C)cccc32)c1`, the activity change, negative = inhibition in experiment [2] was 34.1% (inactive). Regarding `Cc1ccc(OCCn2c(=S)[nH]c3ccccc32)c(C)c1`, in experiment [2], the activity change, negative = inhibition is 7.99% (inactive). As for `Cc1ccc(C(C)C)c(OCCn2c(=S)[nH]c3cc(F)ccc32)c1`, the activity change, negative = inhibition in experiment [2] is 9.32% (inactive). Turning to `Fc1ccc2[nH]c(=S)n(CCOc3ccccc3)c2c1`, in experiment [1], the AC50 was 23.5 µM. In the case of `S=c1[nH]c2ccccc2n1CCOc1ccccc1`, in experiment [1], the AC50 is 24.5 µM. Regarding `Cc1cccc(OCCn2c(=S)[nH]c3ccc(C(F)(F)F)cc32)c1`, the activity change, negative = inhibition in experiment [2] is 24.8% (inactive).

Source of the values: PubChem BioAssay AID743304 (Broad Institute, 2014).
